The values below come from patent US7598244B2, “[1,2,4]triazolo[1,5,a]pyrimidin-2-ylurea derivative and use thereof” (Nippon Kayaku Kabushiki Kaisha, priority 2003, dated 2009).

This experiment relates to MHC class I molecules of T1 cells (human lymphoma cell line 174×CEM.). Put plainly: Effect on expression of MHC class I from T1 cells (flow cytometry, MFI). Format: cell-based. The settings on record: 3 days culture. The method, then:
Effect on Expression of MHC Class I from T1 Cells (Human Lymphoma Cell Line 174×CEM.)
Using a 96-well flat bottom microplate, T1 cells (5.7×10^3 cells/200 μl/well) were cultured in an RPMI 1640 medium (Iwaki Glass) containing 10% fetal bovine serum (hereinafter abbreviated as FBS; Iruvine Scientific) in an incubator containing 5% carbon dioxide at 37° C. for 3 days, in the presence of a test compound having each concentration obtained by dilution at a common ratio route of 10 from 400 μM. After completion of the culture, the cells were stained with fluoroisothiocyanate-labeled mouse anti-human MHC class I monoclonal antibody (an antibody produced from the cell line W6/32 (ATCC No. CRL 1991)). The mean fluorescence intensity of the stained cells (hereinafter referred to as MFI) was measured using flow cytometry FACScan (BD). The obtained value was defined as an expression level of MHC class I molecules. A test compound concentration necessary for suppressing 20% of the expression level of MHC class I molecules (EC20 value) was calculated using the following formula (1).
[formula] • Eexp: MFI of cultured cells containing test compound after being stained with antibody • Cexp: MFI of cultured cells containing no test compounds after being stained with antibody
A general note: In flow cytometry, cells or beads pass a laser one at a time.

With `COC(=O)[C@@H](C)NC(=O)Nc1nc2nccc(-c3ccc(OC)cc3)n2n1` [Example 126], the “EC20 (concentration necessary for suppressing 20% of the expression level of MHC class I molecules)” value amounted to 0.32 µM. As to `CC(CCCC(=O)N1CCOCC1)NC(=O)Nc1nc2nccc(-c3cccs3)n2n1` (stereo not shown) [Example 287], the “EC20 (concentration necessary for suppressing 20% of the expression level of MHC class I molecules)” value worked out at 0.77 µM. Next, `COc1ccc(-c2ccnc3nc(NC(=O)N[C@H](C(=O)N4CCOCC4)C(C)C)nn23)cc1` [Example 070]: 0.48 µM; `COCCOCCOCCOc1ccc(-c2ccnc3nc(NC(=O)N[C@@H](C)CCCC(C)C)nn23)cc1` [Example 263]: 0.0079 µM. Next, `COC(=O)[C@H](C)NC(=O)[C@@H](NC(=O)Nc1nc2nccc(-c3ccc(OC)cc3)n2n1)C(C)C` [Example 098]: 0.14 µM; `COc1ccc(-c2ccnc3nc(NC(=O)N[C@@H](C)CCc4ccccc4)nn23)cc1` [Example 127]: 0.08 µM. Turning to `CC(COCC1CCOCC1)NC(=O)Nc1nc2nccc(-c3cccs3)n2n1` (stereo not shown) [Example 331], the “EC20 (concentration necessary for suppressing 20% of the expression level of MHC class I molecules)” value amounted to 0.15 µM. Next, `CCOCCC(C)NC(=O)Nc1nc2nccc(-c3cccs3)n2n1` (stereo not shown) [Example 281]: 0.12 µM; `COC(=O)[C@H](C)NC(=O)[C@H](C)NC(=O)Nc1nc2nccc(-c3ccc(OC)cc3)n2n1` [Example 122]: 0.34 µM. Next, `C[C@H](NC(=O)Nc1nc2nccc(-c3cccs3)n2n1)c1ccc(O)cc1` [Example 182]: 0.28 µM; `CC(C)CCC[C@H](C)NC(=O)Nc1nc2nccc(-c3ccc(OCCN4CCOCC4)cc3)n2n1.Cl` [Example 258, (S)-1-(1,5-dimethylhexyl)-3-{7-[4-(2-morpholin-4-ylethoxy)phenyl]-[1,2,4]triazolo[1,5-a]pyrimidin-2-yl}urea hydrochloride]: 0.0087 µM; `COCCOc1ccc(-c2ccnc3nc(NC(=O)N[C@@H](C)c4cccc(OC)c4)nn23)cc1` [Example 244, (S)-1-{7-[4-(2-methoxyethoxy)phenyl]-[1,2,4]triazolo[1,5-a]pyrimidin-2-yl}-3-[1-(3-methoxyphenyl)ethyl]urea]: 0.019 µM.

Consider `COCCOc1cccc(-c2ccnc3nc(NC(=O)N[C@@H](C)CCCC(C)C)nn23)c1` [Example 264], for which the “EC20 (concentration necessary for suppressing 20% of the expression level of MHC class I molecules)” value was 0.07 µM.

`CC(C)CCC[C@H](C)NC(=O)Nc1nc2nccc(-c3cccc(OCC4CCCO4)c3)n2n1` (stereo partly shown) [Example 260]: the “EC20 (concentration necessary for suppressing 20% of the expression level of MHC class I molecules)” value was 0.06 µM. Next, `COc1ccc(-c2ccnc3nc(NC(=O)NC(C)c4cc(OC)c(OC)c(OC)c4)nn23)cc1` (stereo not shown) [Example 296]: 0.07 µM; `CC(C)CCC[C@H](C)NC(=O)Nc1nc2nccc(-c3cccc(OCCN4CCOCC4)c3)n2n1` [Example 259]: 0.06 µM; `CC(COCC1CCOCC1)NC(=O)Nc1nc2nccc(-c3ccc4c(c3)OCO4)n2n1` (stereo not shown) [Example 335]: 0.26 µM. As to `COc1cccc([C@H](C)NC(=O)Nc2nc3nccc(-c4ccc(OCC5CCCO5)cc4)n3n2)c1` (stereo partly shown) [Example 224], the “EC20 (concentration necessary for suppressing 20% of the expression level of MHC class I molecules)” value turned out to be 0.09 µM.

For the compound `CC(C)NC(=O)Nc1nc2nccc(-c3cccc(OCc4ccncc4)c3)n2n1` [Example 193], the “EC20 (concentration necessary for suppressing 20% of the expression level of MHC class I molecules)” value is 0.31 µM. For `COc1cccc([C@H](C)NC(=O)Nc2nc3nccc(-c4cccc(OCCN(C)C)c4)n3n2)c1` [Example 205], the “EC20 (concentration necessary for suppressing 20% of the expression level of MHC class I molecules)” value was found to be 0.19 µM. Next, `COCCOCOc1ccc(-c2ccnc3nc(NC(=O)N[C@@H](C)c4cccc(OC)c4)nn23)cc1` [Example 227]: 0.07 µM; `COc1ccc(-c2ccnc3nc(NC(=O)NCC(=O)OC(C)(C)C)nn23)cc1` [Example 110]: 0.79 µM; `COc1ccc([C@H](C)NC(=O)Nc2nc3nccc(-c4cccs4)n3n2)cc1` [Example 176]: 0.2 µM. The result for `COc1cccc([C@H](C)NC(=O)Nc2nc3nccc(-c4cccc(OCc5ccccc5)c4)n3n2)c1` [Example 199] reads 0.28 µM; that for `CCOC(=O)N1CCC(NC(=O)Nc2nc3nccc(-c4ccc(OC)cc4)n3n2)CC1` [Example 138], 0.15 µM. The result for `COc1ccc(-c2ccnc3nc(NC(=O)NCc4cc(OC)c(OC)c(OC)c4)nn23)cc1` [Example 247] reads 0.037 µM.

Consider `COc1cccc([C@H](C)NC(=O)Nc2nc3nccc(-c4ccc(O)cc4)n3n2)c1` [Example 223, (S)-1-[7-(4-hydroxyphenyl)-[1,2,4]triazolo[1,5-a]pyrimidin-2-yl]-3-[1-(3-methoxyphenyl)ethyl]urea], for which the “EC20 (concentration necessary for suppressing 20% of the expression level of MHC class I molecules)” value stood at 0.014 µM.

Turning to `COC(=O)C1CCC(NC(=O)Nc2nc3nccc(-c4ccc(OC)cc4)n3n2)CC1` (stereo not shown) [Example 167], the “EC20 (concentration necessary for suppressing 20% of the expression level of MHC class I molecules)” value was found to be 0.2 µM. For `COc1cc(C(C)NC(=O)Nc2nc3nccc(-c4ccc5c(c4)OCO5)n3n2)cc(OC)c1OC` (stereo not shown) [Example 302, 1-[7-(3,4-methylenedioxyphenyl)-[1,2,4]triazolo[1,5-a]pyrimidin-2-yl]-3-[1-(3,4,5-trimethoxyphenyl)ethyl]urea], the “EC20 (concentration necessary for suppressing 20% of the expression level of MHC class I molecules)” value worked out at 0.18 µM.

Take `COc1ccc(-c2ccnc3nc(NC(=O)N[C@@H](C)C(C)C)nn23)cc1` [Example 216]: the “EC20 (concentration necessary for suppressing 20% of the expression level of MHC class I molecules)” value was 0.16 µM.

As to `COc1cccc([C@H](C)NC(=O)Nc2nc3nccc(-c4cccc(OCc5ccncc5)c4)n3n2)c1` [Example 203], the “EC20 (concentration necessary for suppressing 20% of the expression level of MHC class I molecules)” value turned out to be 0.19 µM. Next, `COc1ccc(-c2ccnc3nc(NC(=O)N[C@@H](C)C(C)(C)C)nn23)cc1` [Example 217]: 0.32 µM; `COc1ccc(-c2ccnc3nc(NC(=O)N[C@@H](C)C(=O)NCC4CCCCC4)nn23)cc1` [Example 121]: 0.17 µM. For the compound `COc1ccc(-c2ccnc3nc(NC(=O)NCC4CCCCC4)nn23)cc1` [Example 099], the “EC20 (concentration necessary for suppressing 20% of the expression level of MHC class I molecules)” value worked out at 0.44 µM. Next, `COc1cccc([C@H](C)NC(=O)Nc2nc3nccc(-c4cccc(OCc5cccnc5)c4)n3n2)c1` [Example 202]: 0.06 µM. Next, `CC(NC(=O)Nc1nc2nccc(-c3cccs3)n2n1)c1ccc2c(c1)OCO2` (stereo not shown) [Example 295]: 0.79 µM.

As for `COCCOCCOCCOc1cccc(-c2ccnc3nc(NC(=O)N[C@@H](C)CCCC(C)C)nn23)c1` [Example 265], the “EC20 (concentration necessary for suppressing 20% of the expression level of MHC class I molecules)” value stood at 0.11 µM. The result for `COc1ccc(-c2ccnc3nc(NC(=O)N[C@H](C(=O)N(C)C)C(C)C)nn23)cc1` [Example 056] reads 0.55 µM; that for `COc1ccc(-c2ccnc3nc(NC(=O)N[C@@H](C)C(=O)NC4CCCCC4)nn23)cc1` [Example 120], 0.25 µM. Next, `CC(C)NC(=O)Nc1nc2nccc(-c3cccc(OCCN4CCOCC4)c3)n2n1` [Example 189]: 0.59 µM; `COc1ccc(-c2ccnc3nc(NC(=O)N[C@@H](C)C(=O)NCCN4CCCCC4)nn23)cc1.Cl` [Example 125]: 0.82 µM.

Consider `COc1cccc([C@H](C)NC(=O)Nc2nc3nccc(-c4cccc(OCCc5ccccn5)c4)n3n2)c1` [Example 208], for which the “EC20 (concentration necessary for suppressing 20% of the expression level of MHC class I molecules)” value was 0.18 µM.

In the case of `COc1cccc([C@H](C)NC(=O)Nc2nc3nccc(-c4cccc(OCCCN(C)C)c4)n3n2)c1` [Example 221], the “EC20 (concentration necessary for suppressing 20% of the expression level of MHC class I molecules)” value turned out to be 0.12 µM. The result for `COc1ccc(-c2ccnc3nc(NC(=O)N[C@@H](C)C(=O)N4CCN(C)CC4)nn23)cc1` [Example 123] reads 0.48 µM. Next, `CC(C)NC(=O)Nc1nc2nccc(-c3ccc4c(c3)OCO4)n2n1` [Example 087]: 0.78 µM; `COc1ccc(-c2ccnc3nc(NC(=O)N[C@@H](C)C(=O)NCc4ccccc4)nn23)cc1` [Example 119]: 0.21 µM.
